# Results published in patent publication US12162918B2, “Periostin compounds for the treatment of haematological complications” (Chemotherapeutisches Forschungsinstitut Georg-Speyer-Haus, priority 2018, dated 2024).
# Key:
# Lin− bone marrow cells = assay: Culture of Lin− bone marrow cells in conditioned medium from stroma cells; type: cell-based, mice; settings: conditioned medium from warfarin-treated stroma cells
# Protocol: Conditioned medium was harvested from stroma from 5 mice grown in the above medium containing vehicle or warfarin for 7 days. Consequently, 100,000 Lin− cells were grown for 2-3 days in the conditioned medium and analyzed for cell counts by flow cytometry. Where indicated, the conditioned medium was concentrated using Microsep Advance Centrifugal Devices 30K Omega (Pall Life Sciences, Portsmouth, UK).
# Lin− and LKS cells = assay: Homing assay to a warfarin-treated BMM; type: in vivo, mice; settings: 18 hours after transplantation
# Protocol: In the homing assay, we intravenously transplanted 9×10^6 Actin DsRed+ whole BM cells into C57BL/6N mice treated with vehicle or warfarin for 14 days. 18 hours later, we analyzed BM and spleen cells of recipient mice for the presence of DsRed+ LKS cells.
# CD45.1+ LKS cells = assay: Transplantation of sorted LKS or Lin− cells from warfarin-treated mice into untreated recipients; type: in vivo
# Protocol: (§1) SJL (CD45.1) donor mice were treated with vehicle or warfarin, euthanized and long bones were flushed, followed by RBC lysis (Life Technologies, Darmstadt, Germany). For competitive transplantation 2×10^6 total BM cells from SJL mice were co-transplanted with 1×10^6 CD45.2+ BM competitor cells into lethally irradiated (900 cGy) C57BL/6N (CD45.2+) recipient mice. For serial transplantation 2×10^6 total CD45.1+ BM cells were transplanted into lethally irradiated C57BL/6N recipient mice. Cell engraftment and chimerism were assessed by flow cytometry of peripheral blood leukocytes for CD45.1 and CD45.2 after 4, 8, 12 and 16 weeks post transplantation. In the limiting dilution experiment we treated primary CD45.1+ donor mice with vehicle or warfarin for 14 days and, consequently, transplanted 5×10^5, 12.5×10^4, 6×10^4 and 1.5×10^4 pooled BM cells into 5 CD45.2+ recipients per group adding 5×10^5 CD45.2+ supporter cells. In indicated experiments we transplanted 5,000 or 10,000 sorted CD45.1+ LKS cells from mice treated with vehicle or warfarin plus 1×10^6 CD45.2+ total BM supporter cells into CD45.2+ recipient mice.
# HSC = assay: Competitive, serial and limiting dilution transplantation assays of whole bone marrow; type: in vivo, mice
# Protocol: as §1
# Differences in survival were assessed by Kaplan-Meier non-parametric estimates (Log-rank test) and between groups by student's t-test. The data were presented as mean±s.d. We used L-Calc software (Stemcell Technologies, Vancouver, Canada) to calculate HSC frequency by Poisson statistics. P values≤0.05 were accepted as significant.
# [1] = system: bone marrow Lin− and LKS cells; assay: Apoptosis, cell cycle, pAKT and macrophages in bone marrow of warfarin-treated mice; type: in vivo
# Protocol: (§2) 0.5 mg/kg/d or 0.05 mg/kg/d of warfarin, resuspended in phosphate-buffered saline was administered to mice via subcutaneously implanted osmotic minipumps (ALZET minipumps, Cupertino, CA). The osmotic minipumps were changed after 14 days (if the experiment went beyond 14 days of treatment). Sham operated (skin incision and suture) mice served as controls. Warfarin treatment continued for 10-14 days. In the xenotransplantation experiments the mice were treated with warfarin via the drinking water (or normal drinking water) at a dose of 0.72 mg/100 ml for a total of 3 days a week (Pfeilschifter et al., 2011).
# For cell cycle analysis cells were permeabilized and fixed with the cytoperm/cytofix kit (BD Biosciences, San Jose, CA), followed by staining with an antibody to Ki67-PE (Biolegend, San Diego, CA) overnight at 4 C. Consequently, cells were washed and resuspended in PBS with DAPI (1 ng/ml). For detection of apoptosis cells were first stained for surface markers, washed with Annexin V buffer (Life Technologies, Darmstadt, Germany), stained with Annexin V-PE (Life Technologies, Darmstadt, Germany), washed with Annexin V binding buffer, resuspended in PBS with DAPI and analyzed.
# The PE-labelled anti-pAKT antibody (Cell signaling, #5315, Danvers, MA) was used for intracellular flow cytometry after fixation and permeabilization of the cells.
# Lin− hematopoietic cells = assay: Direct effect of warfarin on Lin− hematopoietic cells in vitro; type: cell-based, mice
# Protocol: Concentrations of drugs for in vitro use were 2 μM for warfarin, 2 μg/ml for periostin, 5 μM for the AKT inhibitor MK-2206 (Selleck Chemicals, Houston, TX) and cilengitide (Selleck Chemicals, Houston, TX, Cat. No. #S7077) was used at 0.05 μM. Phosphate buffered saline served as the vehicle control.
# To test the direct effect of warfarin on hematopoietic cells 100,000 Lin− cells were cultured in 2 μM vehicle or warfarin in the absence of stroma cells for a total of 7 days. For the in vitro rescue experiment with periostin stroma cells were grown in warfarin for 14 days, before vehicle or periostin were added.
# wildtype mice = assay: 5-fluorouracil-induced hematopoietic stress in warfarin-treated mice; type: in vivo
# Protocol: as §2
# 5-fluorouracil was intraperitoneally injected every week at a dose of 75 mg/kg for a total of 4 doses or as a one time dose of 200 mg/kg. Recombinant mouse periostin (R&D Systems, Minneapolis, MN, cat. no. 2955-F2), produced in the Sf21 (baculovirus)-derived insect cell line, was administered intravenously at a dose of 2-4 μg per day and vitamin K was given at a dose of 15 mg/kg by oral gavage for four consecutive days.
smiles,measurement,setting,value
CC(=O)CC(c1ccccc1)c1c(O)c2ccccc2oc1=O (centres unmarked) [warfarin],Lin− cell fraction,Lin− bone marrow cells; P=0.0001,decrease
same,total number of hematopoietic cells,Lin− bone marrow cells; P=0.0009,decrease
same,myeloid cell fraction,Lin− bone marrow cells; P=0.001,decrease
same,homing of Lin− and LKS cells to a warfarin-treated BMM,Lin− and LKS cells,not compromised
same,percentage of Lin− cells in the S/G2/M phases after transplantation into an untreated BMM,"CD45.1+ LKS cells; Lin− cells from a warfarin-treated BMM, P=0.04",increase
same,percentage of CD45.1+ donor cells in peripheral blood of recipients,"CD45.1+ LKS cells; equal numbers of LKS cells from warfarin-treated donors, one month after transplantation, P=0.03",higher percentage
same,reconstitution by warfarin-treated LKS cells,"CD45.1+ LKS cells; higher number of transplanted LKS cells, 16 weeks post transplantation",lower than in the case of control LKS cells
same,function of whole bone marrow cells in serial transplantation,HSC; P=0.004 after tertiary transplantation,impaired function
same,function of whole bone marrow cells in competitive transplantation,HSC; P=0.04 after 16 weeks,impaired function
same,reduction of functional HSC in limiting dilution assay,"HSC; warfarin-treated vs control mice, P=0.0006, L-Calc",7.6 fold
same,annexin V+ DAPI+ dead LKS cells in bone marrow,"[1]; after 6 weeks, P=0.03",modest increase
same,annexin V+ DAPI+ dead Lin− cells in bone marrow,"[1]; after two weeks, P=0.038",modest increase
same,macrophages in the bone marrow of primary mice,[1]; warfarin vs controls,not reduced
same,percentage of LKS cells in the Go phase of the cell cycle,"[1]; warfarin vs vehicle, P=0.005",significantly increased
same,pAKT+ Lin− cells in the bone marrow,"[1]; warfarin-treated vs control mice, P=0.04",significant reduction
same,number of colonies from Lin− cells previously exposed in vitro,"Lin− hematopoietic cells; 2 μM warfarin or vehicle for 7 days, scored day 10",did not yield significantly different numbers of colonies
same,"effect on phenotypical Lin− or LKS cells, annexin V+ dead cells, cycling or myeloid cells",Lin− hematopoietic cells; Lin− cells cultured in warfarin-containing media,no direct effect
same,leukocyte counts after 5-fluorouracil,"wildtype mice; 7 days after one-time dose of 200 mg/kg 5-fluorouracil, P=0.03",lower
same,survival,"wildtype mice; higher dose (0.5 mg/kg), 75 mg/kg 5-fluorouracil days 0, 7, 14, 21, P=0.0004 Log-rank",similarly shortened
same,survival,"wildtype mice; lower dose (0.05 mg/kg), 75 mg/kg 5-fluorouracil days 0, 7, 14, 21, P=0.02 Log-rank",similarly shortened
